Read-outs that look alike come from different tables or passages of the source.

The conditions of data set [1]: reference 11; cited from earlier work.
For data set [2] the following is noted: read-out: apparent dissociation constant for Mg-EGTA, cited from earlier work.
For data set [3] the following is noted: calculated from tables of Martell & Smith, read-out: apparent dissociation constant for Ca-EGTA, cited from earlier work.
The conditions of data set [4]: reference 11; cited from earlier work. The source holds these as a separate data set.
Data set [5] is classed as binding. As for the experimental part:
(§1) Calcium and magnesium affinities of EGTA at high ionic strength were measured by titrating 125 micromole portions of EGTA (Fluka Chemical, puriss grade) with 1.00M KOH (J.T. Baker, low in carbonate). The EGTA was dissolved in 25 ml medium containing 225 mM KCl, 25 mM NaCl, and in some runs 10 mM CaCl2 or 21 mM MgCl2. This solution was stirred in a Radiometer TTA80 Titrator, bubbled continuously with nitrogen, and thermostatted at 18° C. while KOH was added in 0.005 or 0.01 ml aliquots from a ABU80autoburet. The pH was measured with a PHM84 meter, a G2040C electrode and an Ag/AgCl reference electrode connected to the titration solution by a long length of 0.01 inch catheter tubing filled with 3M KCl; this electrode chain was calibrated with phthalate (4.001), phosphate (6.889), and borax (9.245) buffers made according to National Bureau of Standards recipes. The fifty to eighty pH readings in each titration were analyzed by the FORTRAN program SCOGS of Sayce (see reference 36). The resulting proton ionization constants for EGTA were 9.537 and 8.961 with computed uncertainties of ±0.012 and ±0.008 respectively. […] At this ionic strength and any pH>4, the effective stability constant K'Ca may be calculated as (antilog 10.77)·[1 +antilog (3.51-pH)]/[1+antilog (9.537-pH)+antilog (9.537+8.961-2·pH)]in units of liters/mole. […]

The conditions of data set [6]: cited from earlier work.
The format of data set [7] is binding. As for the experimental part: as §1
This is another data set of the same source.

Regarding `O=C(O)CN(CCOCCOCCN(CC(=O)O)CC(=O)O)CC(=O)O` [EGTA, ethylene glycol bis(beta-aminoethyl ether)-N,N,N',N'-tetracetic acid], the “preference for Mn^2+ over Ca^2+” value in data set [1] was “ca. 20 fold”. Besides, the Kd is 8960 µM in data set [2] (pH 7.05 in 130 mM KCl, 20 mM NaCl at 37°); 21000 µM in data set [2] (pH 7.18 in 130 mM KCl at 20°); 0.38 µM in data set [3] (pH 7.00 in 0.1M KCl, 20° C.); 0.214 µM in data set [3] (pH 7.05 in 130 mM KCl, 20 mM NaCl at 37° C.); 0.151 µM in data set [3] (pH 7.20 in 0.1M KCl, 20° C.); 99000 µM in data set [5] (pH 7.02 in 225 mM KCl, 25 mM NaCl at 18°, freshly determined, read-out: apparent dissociation constant for Mg-EGTA). Moreover, the Kd in data set [6] (pH 7.11, reference 11, read-out: effective dissociation constant of EGTA for Zn^2+) was 0.00427 µM; in data set [7] (pH 7.02 in 225 mM KCl, 25 mM NaCl at 18° C., freshly determined, read-out: apparent dissociation constant for Ca-EGTA), 0.49 µM. Further, the “preference for Fe^2+ over Ca^2+” value in data set [4] is “ca. 8 fold”. In addition, the “proton pKa for Mg.EGTA” value in data set [5] (225 mm kcl, 25 mm nacl) amounted to 7.885±0.05. The “preference for Zn^2+ over Ca^2+” value in data set [6] (reference 11) is listed as “ca. 50 fold”. For the same compound, the “proton pKa for Ca.EGTA” value in data set [7] (225 mm kcl, 25 mm nacl) was determined as 3.51±0.49.

(Values after patent publication US4603209A, “Fluorescent indicator dyes for calcium ions” (priority 1984, dated 1986).)
